Counter-ions that a name gives are not always drawn.
Target: LsrK (Salmonella typhimurium, UniProt Q8ZKQ6)
Assay: biochemical
Assay type: biochemical, S. typhimurium
Settings: for Inhibition (%): 50 µM

Chain of LsrK (Q8ZKQ6 whole entry): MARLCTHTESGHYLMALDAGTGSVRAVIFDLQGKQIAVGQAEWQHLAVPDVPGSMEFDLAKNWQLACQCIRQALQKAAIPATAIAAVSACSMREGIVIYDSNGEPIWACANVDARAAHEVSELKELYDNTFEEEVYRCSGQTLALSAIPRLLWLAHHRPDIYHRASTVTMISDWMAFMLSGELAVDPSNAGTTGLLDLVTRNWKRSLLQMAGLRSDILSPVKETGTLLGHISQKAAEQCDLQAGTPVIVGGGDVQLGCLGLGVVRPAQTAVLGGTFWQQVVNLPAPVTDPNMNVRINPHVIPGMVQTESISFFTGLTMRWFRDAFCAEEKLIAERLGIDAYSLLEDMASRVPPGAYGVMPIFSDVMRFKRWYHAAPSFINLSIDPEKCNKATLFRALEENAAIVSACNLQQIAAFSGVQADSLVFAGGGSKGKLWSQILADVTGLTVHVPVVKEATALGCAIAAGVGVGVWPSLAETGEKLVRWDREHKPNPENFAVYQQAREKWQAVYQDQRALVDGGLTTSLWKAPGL

Compound | inhibition at 50 µM | further results
CCN(CC)C(=O)N1CCN(C)CC1 [DIETHYLCARBAMAZINE CITRATE] | 1% | 
COc1ccc2oc(-c3ccccc3OC)cc(=O)c2c1 [6.2'-DIMETHOXYFLAVONE] |  | Inhibition (%): 1
CC(C)[N+]1(C)[C@@H]2CC[C@H]1C[C@@H](OC(=O)C(CO)c1ccccc1)C2 (stereo partly drawn) [IPRATROPIUM BROMIDE] | 0% | 
COc1cc([C@@H]2c3cc4c(cc3[C@@H](O[C@@H]3O[C@@H]5CO[C@@H](c6cccs6)O[C@H]5[C@H](O)[C@H]3O)[C@H]3COC(=O)[C@H]23)OCO4)cc(OC)c1O [TENIPOSIDE] | 2% | 
CCCCC1(COC(=O)CCC(=O)O)C(=O)N(c2ccccc2)N(c2ccccc2)C1=O [SUXIBUZONE] | 8% | 
Cc1ccc(S(=O)(=O)NC(=O)NN2CC3CCCC3C2)cc1 (stereo not drawn) [GLICLAZIDE] | 1% | 
S=C=NCc1ccccc1 [BENZYL ISOTHIOCYANATE] | 2% | 
O=C(O[C@@H]1Cc2c(O)cc(O)cc2O[C@@H]1c1cc(O)c(=O)c2c(O)c(O)cc([C@H]3Oc4cc(O)cc(O)c4C[C@H]3O)c2c1)c1cc(O)c(O)c(O)c1 [THEAFLAVIN MONOGALLATES] | 129% | 
COC1=C(O)C(=O)c2c(cc3oc(C(C)=O)c(O)c3c2O)C1=O [RHO[…]] | 22% | 
CN(C)[C@@H]1C(O)=C(C(N)=O)C(=O)[C@@]2(O)C(O)=C3C(=O)c4c(O)cccc4[C@@](C)(O)[C@H]3C[C@@H]12 [TETRACYCLINE HYDROCHLORIDE] | 114% | 
CN(C)CCN(Cc1ccccc1)c1ccccn1 [TRIPELENNAMINE CITRATE] | 2% | 
c1ccc(/N=N/c2ccccc2)cc1 [AZOBENZENE] | 1% | 
CCCCCc1c2c(cc(O)c1C(=O)O)OC(=O)c1c(cc(OC)cc1C(=O)CCCC)O2 [LOBARIC ACID] | 98% | 
CCN1CCCC1CNC(=O)c1cc(S(N)(=O)=O)ccc1OC (stereo not drawn) [SULPIRIDE] | 83% | 
CC[C@H]1OC(=O)C[C@@H](O)[C@H](C)[C@@H](O[C@@H]2O[C@H](C)[C@@H](O)[C@H](N(C)C)[C@H]2O)[C@@H](CCN2C[C@H](C)C[C@H](C)C2)C[C@@H](C)C(=O)/C=C/C(C)=C/[C@@H]1CO[C@@H]1O[C@H](C)[C@@H](O)[C@@H](OC)[C@H]1OC [TILMICOSIN] | 16% | 
COC(=O)[C@H](c1ccccc1Cl)N1CCc2sccc2C1 [CLOPIDOGREL SULFATE] | 11% | 
C[C@H]1COC2=C1C(=O)C(=O)c1c2ccc2c1CCCC2(C)C [CRYPTOTANSHINONE] | 16% | 
CC(C)=CCc1c2c(c3occ(-c4ccc(O)c(O)c4)c(=O)c3c1O)C=CC(C)(C)O2 [POMIFERIN] | 2% | 
O=C(O)c1ccccc1C(=O)Nc1ccc(S(=O)(=O)Nc2nccs2)cc1 [PHTHALYLSULFATHIAZOLE] | 1% | 
CC(=O)O[C@H]1CC[C@]2(C)C(C[C@@H](OC(C)=O)[C@]3(C)C4=CC(=O)O[C@H](c5ccoc5)[C@@]4(C)CCC23)C1(C)C (stereo partly drawn) [3-DEOXO-3beta-ACETOXYDEOXYDIHYDROGEDUNIN] | 5% | 
O=c1oc2ccccc2c(O)c1Cc1c(O)c2ccccc2oc1=O [DICUMAROL] | 4% | 
Cc1coc2c1C(=O)C(=O)c1c-2ccc2c1CCCC2(C)C [TANSHINONE IIA] | 50% | 
OC(CCN1CCCC1)(c1ccccc1)C1CCCCC1 (stereo not drawn) [PROCYCLIDINE HYDROCHLORIDE] | 0% | 
CCn1cc(C(=O)O)c(=O)c2cc(F)c(N3CCNC(C)C3)c(F)c21 (stereo not drawn) [LOMEFLOXACIN HYDROCHLORIDE] | 0% | 
COCCCOc1cc(C[C@@H](C[C@H](N)[C@@H](O)C[C@H](C(=O)NCC(C)(C)C(N)=O)C(C)C)C(C)C)ccc1OC [ALISKIREN HEMIFUMARATE] | 0% | 
CCOC(=O)C1=C(C)NC(C)=C(C(=O)OC)C1c1cccc([N+](=O)[O-])c1 (stereo not drawn) [NITRENDIPINE] | 1% | 

Compound | inhibition at 50 µM | further results
CC(C)(Oc1ccc(CCNC(=O)c2ccc(Cl)cc2)cc1)C(=O)O [BEZAFIBRATE] | 2% | 
COc1cc2ccc(=O)oc2c(OC)c1OC [FRAXIDIN METHYL ETHER] | 1% | 
OC[C@H]1O[C@H](OCC2O[C@@H](O)[C@H](O)[C@@H](O)[C@@H]2O)[C@H](O)[C@@H](O)[C@H]1O (stereo partly drawn) [MELIBIOSE] |  | Inhibition (%): 3
C[C@]12CCC3c4ccc(OS(=O)(=O)[O-])cc4CCC3C1CC[C@H]2O.[Na+] (stereo partly drawn) [ESTRADIOL-3-SULFATE. SODIUM SALT] |  | Inhibition (%): 0
C=C[C@@](C)(O)CC[C@H]1C(=C)C[C@H](O)[C@H]2C(C)(C)CCC[C@]12C [LARIXOL] |  | Inhibition (%): 1
COc1cc(-c2coc3cc(O)c(OC)c(O)c3c2=O)cc(O)c1OC [[…]] | 5% | 
CCCSc1ccc2nc(NC(=O)OC)[nH]c2c1 [ALBENDAZOLE] | 4% | 
O=C(c1ccc(OCCN2CCCCC2)cc1)c1c(-c2ccc(O)cc2)sc2cc(O)ccc12 [RALOXIFENE HYDROCHLORIDE] | 0% | 
GRAMICIDIN |  | Inhibition (%): 0
Cc1c(O)c(O)cc2c1CC=C1[C@@]2(C)CC[C@@]2(C)[C@@H]3C[C@](C)(C(=O)O)CC[C@]3(C)CC[C@]12C [DIHYDROCELASTROL] | 105% | IC50: 21 µM
O=c1[nH]cc(F)c(=O)[nH]1 [FLUOROURACIL] | 0% | 
CN(C)[C@@H]1C(O)=C(C(N)=O)C(=O)[C@@]2(O)C(O)=C3C(=O)c4c(O)cccc4[C@@](C)(O)[C@H]3[C@H](O)[C@@H]12 [OXYTETRACYCLINE] | 94% | 
MANGANESE TETRAKIS(4-CARBOXYPHENYL)PORPHYRIN CHLORDE |  | Inhibition (%): 1
C=C1C[C@@H]2[C@H](CC[C@]3(C)C(=O)CC[C@@H]23)[C@@]2(C)C=CC(=O)C=C12 [EXEMESTANE] | 11% | 
COC(=O)CC1C(C)(C)C(OC(C)=O)[C@@H]2[C@@H](OC(C)=O)[C@]34O[C@@]2(O)[C@]1(C)C3CC[C@]1(C)C4=CC(=O)O[C@H]1c1ccoc1 (stereo partly drawn) [[…]] | 2% | 
CCn1cc(C(=O)O)c(=O)c2cnc(N3CCCC3)nc21 [PIROMIDIC ACID] | 19% | 
COc1ccc(C(=O)N2CCCC2=O)cc1 | 0% | 
Nc1ccccc1S(N)(=O)=O [2-AMINOBENZENESULFONAMIDE] | 1% | 
TANNIC ACID |  | Inhibition (%): 94
C[C@@]12C(=O)OC(=O)[C@]1(C)[C@H]1CC[C@@H]2O1 [CANTHARIDIN] | 4% | 
CCCCCCCCCCOc1cc2c(O)c(C(=O)OCC)cnc2cc1OCC [DECOQUINATE] | 36% | 
Nc1ncnc2[nH]cnc12 [ADENINE] | 1% | 
N[C@H]1C(O)O[C@H](CO)[C@@H](O)[C@@H]1O (stereo partly drawn) [GLUCOSAMINE HYDROCHLORIDE] | 1% | 
CC(=O)Oc1c(C)cccc1C(=O)O [CRESOPIRINE] |  | Inhibition (%): 1
CCCCC1C(=O)N(c2ccccc2)N(c2ccccc2)C1=O [PHENYLBUTAZONE] | 0% | 
C#C[C@]1(O)CC[C@H]2[C@@H]3CCc4cc(O)ccc4[C@H]3CC[C@@]21C [ETHINYL ESTRADIOL] | 1% | 

Compound | inhibition at 50 µM | further results
COC(=O)C[C@H]1C(C)(C)[C@@H](O)[C@@H]2CC3=C4CC(O)O[C@@H](c5ccoc5)[C@]4(C)CCC3[C@@]1(C)C2=O (stereo partly drawn) [3.16-DIDEOXYMEXICANOLIDE-3beta-DIOL] |  | Inhibition (%): 0
COc1cccc(O)c1O [3-METHOXYCATECHOL] | 118% | 
CC(=O)OCC(OC(C)=O)C(OC(C)=O)C(OC(C)=O)C(OC(C)=O)C(COC(C)=O)OC(C)=O (stereo not drawn) [PERSITOL HEPTAACETATE] |  | Inhibition (%): 3
CC(=O)N(O)CCCCCNC(=O)CCC(=O)N(O)CCCCCNC(=O)CCC(=O)N(O)CCCCCN [DEFEROXAMINE MESYLATE] | 1% | 
O=C1C(Cl)=C(Cl)C(=O)c2c(O)ccc(O)c21 [2.3-DICHLORO-5.8-DIHYDROXYNAPTHOQUINONE] |  | Inhibition (%): 30
C[C@H](CCC(=O)O)[C@H]1CC[C@H]2[C@@H]3[C@H](O)C[C@@H]4C[C@H](O)CC[C@]4(C)[C@H]3CC[C@]12C [CHENODIOL] | 2% | 
O=C(CCc1ccc(O)cc1)c1c(O)cc(O)cc1O [PHLORETIN] | 60% | 
CCOP(=S)(OCC)Oc1nc(Cl)c(Cl)cc1Cl [CHLORPYRIFOS] | 0% | 
O=C(O)C(S)C(S)C(=O)O (stereo not drawn) [2.3-DIMERCAPTOSUCCINIC ACID] |  | Inhibition (%): 88
CN1CCCCC1c1ccc(-c2cccnc2)nc1 (stereo not drawn) [ANABASAMINE HYDROCHLORIDE] | 2% | 
O=C(O)C1CCCNC1 (stereo not drawn) [NIPECOTIC ACID] | 0% | 
CC(C)Nc1ncccn1 [ISAXONINE] | 0% | 
COc1ccc2[nH]cc(CCNC(C)=O)c2c1 [MELATONIN] | 1% | 
COc1ccc2c(c1OC)C(=O)O[C@@H]2[C@H]1c2c(cc3c(c2OC)OCO3)CCN1C [NOSCAPINE HYDROCHLORIDE] | 1% | 
O=C(O)c1cc(/N=N/c2ccc(S(=O)(=O)Nc3ccccn3)cc2)ccc1O [SULFASALAZINE] | 5% | 
O=c1cc(-c2ccc(O)cc2)oc2cc(O[C@@H]3O[C@H](CO)[C@@H](O)[C@H](O)[C@H]3O[C@@H]3OC[C@](O)(CO)[C@H]3O)cc(O)c12 [APIIN] | 1% | 
Oc1c(Cl)cc(Cl)c(Cl)c1Cc1c(O)c(Cl)cc(Cl)c1Cl [HEXACHLOROPHENE] | 112% | 
N=c1ccn2c(n1)O[C@H]1[C@H](O)[C@@H](CO)O[C@H]12 [ANCITABINE HYDROCHLORIDE] | 2% | 
MECLOCYCLINE SULFOSALICYLATE |  | Inhibition (%): 93
O=C1C=C2CC3(O)COc4c(ccc(O)c4O)C3=C2C=C1O (stereo not drawn) [HEMATEIN] | 107% | 
NC(C(=O)O)C(O)C(=O)O (stereo not drawn) [d.l-threo-3-HYDROXYASPARTIC ACID] |  | Inhibition (%): 3
C[C@]12CC[C@H]3[C@@H](CC[C@]4(O)C[C@@H](O)CC[C@]34C=O)[C@@]1(O)CC[C@@H]2C1=CC(=O)OC1 [STROPHANTHIDIN] | 0% | 
OC[C@H]1O[C@@H](Oc2ccc(O)cc2)[C@H](O)[C@@H](O)[C@@H]1O [ARBUTIN] | 2% | 
COc1cc(OC)c(C(C)=O)c(OC)c1 [METHYLXANTHOXYLIN] |  | Inhibition (%): 4
CC(=O)O[C@H]1C[C@@H](OC(C)=O)C(C)(C)C2C[C@@H](O)[C@]3(C)C(CC[C@@]4(C)[C@H](c5ccoc5)OC(=O)[C@H]5O[C@]543)[C@]21C (stereo partly drawn) [7-DEACETYLKHIVORIN] |  | Inhibition (%): 0

— PMC6627609, “Targeting Quorum Sensing: High-Throughput Screening to Identify Novel LsrK Inhibitors” (International Journal of Molecular Sciences, 2019)
